Key:
Type in all cases: functional
HOP-62 = experiment: Growth inhibition of human HOP62 cells assessed as cell growth at 5X10'-5 M after 48 hrs by sulforhodamine B assay; conditions: HOP-62, 48 h, read-out: Activity
UACC-62 [1] = experiment: Growth inhibition of human UACC62 cells assessed as cell growth at 5X10'-5 M after 48 hrs by sulforhodamine B assay; conditions: UACC-62, 48 h, read-out: Activity
NCI-H460 = experiment: Growth inhibition of human NCI-H460 cells assessed as cell growth at 5X10'-9 M after 48 hrs by sulforhodamine B assay; conditions: NCI-H460, 48 h, read-out: Activity
SK-MEL-5 [2] = experiment: Growth inhibition of human SK-MEL-5 cells assessed as cell growth at 5X10'-8 M after 48 hrs by sulforhodamine B assay; conditions: SK-MEL-5, 48 h, read-out: Activity
UACC-62 [3] = experiment: Growth inhibition of human UACC62 cells assessed as cell growth at 5X10'-8 M after 48 hrs by sulforhodamine B assay; conditions: UACC-62, 48 h, read-out: Activity
K562 = experiment: Growth inhibition of human K562 cells assessed as cell growth at 5X10'-5 M after 48 hrs by sulforhodamine B assay; conditions: K562, 48 h, read-out: Activity
MDA-MB-435 = experiment: Growth inhibition of human MDA-MB-435 cells assessed as cell growth at 5X10'-8 M after 48 hrs by sulforhodamine B assay; conditions: MDA-MB-435, 48 h, read-out: Activity
BT-549 = experiment: Growth inhibition of human BT549 cells assessed as cell growth at 5X10'-5 M after 48 hrs by sulforhodamine B assay; conditions: BT-549, 48 h, read-out: Activity
TK-10 [4] = experiment: Growth inhibition of human TK10 cells assessed as cell growth at 5X10'-9 M after 48 hrs by sulforhodamine B assay; conditions: TK-10, 48 h, read-out: Activity
M14 [5] = experiment: Growth inhibition of human M14 cells assessed as cell growth at 5X10'-8 M after 48 hrs by sulforhodamine B assay; conditions: M14, 48 h, read-out: Activity
NCI-H322M = experiment: Growth inhibition of human NCI-H322M cells assessed as cell growth at 5X10'-8 M after 48 hrs by sulforhodamine B assay; conditions: read-out: Activity
SW-620 [6] = experiment: Growth inhibition of human SW620 cells assessed as cell growth at 5X10'-7 M after 48 hrs by sulforhodamine B assay; conditions: SW-620, 48 h, read-out: Activity
OVCAR-3 = experiment: Growth inhibition of human OVCAR3 cells assessed as cell growth at 5X10'-5 M after 48 hrs by sulforhodamine B assay; conditions: OVCAR-3, 48 h, read-out: Activity
[7] = Growth inhibition of human NCI-ADR-RES cells assessed as cell growth at 5X10'-9 M after 48 hrs by sulforhodamine B assay; conditions: read-out: Activity
SW-620 [8] = experiment: Growth inhibition of human SW620 cells assessed as cell growth at 5X10'-8 M after 48 hrs by sulforhodamine B assay; conditions: SW-620, 48 h, read-out: Activity
COLO 205 = experiment: Growth inhibition of human COLO205 cells assessed as cell growth at 5X10'-7 M after 48 hrs by sulforhodamine B assay; conditions: COLO 205, 48 h, read-out: Activity
Malme-3M = experiment: Growth inhibition of human MALME-3M cells assessed as cell growth at 5X10'-6 M after 48 hrs by sulforhodamine B assay; conditions: read-out: Activity
SK-MEL-5 [9] = experiment: Growth inhibition of human SK-MEL-5 cells assessed as cell growth at 5X10'-7 M after 48 hrs by sulforhodamine B assay; conditions: SK-MEL-5, 48 h, read-out: Activity
MOLT-4 = experiment: Growth inhibition of human MOLT4 cells assessed as cell growth at 5X10'-9 M after 48 hrs by sulforhodamine B assay; conditions: MOLT-4, 48 h, read-out: Activity
A498 = experiment: Growth inhibition of human A498 cells assessed as cell growth at 5X10'-7 M after 48 hrs by sulforhodamine B assay; conditions: A498, 48 h, read-out: Activity
M14 [10] = experiment: Growth inhibition of human M14 cells assessed as cell growth at 5X10'-6 M after 48 hrs by sulforhodamine B assay; conditions: M14, 48 h, read-out: Activity
CAKI-1 = experiment: Growth inhibition of human CAKI-1 cells assessed as cell growth at 5X10'-8 M after 48 hrs by sulforhodamine B assay; conditions: CAKI-1, 48 h, read-out: Activity
[11] = Growth inhibition of human HCC2998 cells assessed as cell growth at 5X10'-5 M after 48 hrs by sulforhodamine B assay; conditions: HCC 2998, 48 h, read-out: Activity
SK-OV-3 = experiment: Growth inhibition of human SKOV3 cells assessed as cell growth at 5X10'-6 M after 48 hrs by sulforhodamine B assay; conditions: SK-OV-3, 48 h, read-out: Activity
[12] = Growth inhibition of human Hs 578T cells assessed as cell growth at 5X10'-6 M after 48 hrs by sulforhodamine B assay; conditions: read-out: Activity
SNB-19 [13] = experiment: Growth inhibition of human SNB19 cells assessed as cell growth at 5X10'-8 M after 48 hrs by sulforhodamine B assay; conditions: SNB-19, 48 h, read-out: Activity
TK-10 [14] = experiment: Growth inhibition of human TK10 cells assessed as cell growth at 5X10'-5 M after 48 hrs by sulforhodamine B assay; conditions: TK-10, 48 h, read-out: Activity
HCT-116 = experiment: Growth inhibition of human HCT116 cells assessed as cell growth at 5X10'-5 M after 48 hrs by sulforhodamine B assay; conditions: HCT-116, 48 h, read-out: Activity
[15] = Growth inhibition of human NCI-ADR-RES cells assessed as cell growth at 5X10'-8 M after 48 hrs by sulforhodamine B assay; conditions: read-out: Activity
SN12C = experiment: Growth inhibition of human SN12C cells assessed as cell growth at 5X10'-6 M after 48 hrs by sulforhodamine B assay; conditions: read-out: Activity
SK-MEL-28 = experiment: Growth inhibition of human SK-MEL-28 cells assessed as cell growth at 5X10'-9 M after 48 hrs by sulforhodamine B assay; conditions: SK-MEL-28, 48 h, read-out: Activity
[16] = Growth inhibition of human HCC2998 cells assessed as cell growth at 5X10'-6 M after 48 hrs by sulforhodamine B assay; conditions: HCC 2998, 48 h, read-out: Activity
A549 = experiment: Growth inhibition of human A549/ATCC cells assessed as cell growth at 5X10'-6 M after 48 hrs by sulforhodamine B assay; conditions: A549, 48 h, read-out: Activity
NCI-H23 = experiment: Growth inhibition of human NCI-H23 cells assessed as cell growth at 5X10'-5 M after 48 hrs by sulforhodamine B assay; conditions: NCI-H23, 48 h, read-out: Activity
SNB-19 [17] = experiment: Growth inhibition of human SNB19 cells assessed as cell growth at 5X10'-6 M after 48 hrs by sulforhodamine B assay; conditions: SNB-19, 48 h, read-out: Activity
SF-539 = experiment: Growth inhibition of human SF539 cells assessed as cell growth at 5X10'-9 M after 48 hrs by sulforhodamine B assay; conditions: SF-539, 48 h, read-out: Activity
SW-620 [18] = experiment: Growth inhibition of human SW620 cells assessed as cell growth at 5X10'-9 M after 48 hrs by sulforhodamine B assay; conditions: SW-620, 48 h, read-out: Activity

SMILES	growth at 50 µM (HOP-62)	growth at 50 µM (UACC-62 [1])	growth at 0.005 µM (NCI-H460)	growth at 0.05 µM (SK-MEL-5 [2])	growth at 0.05 µM (UACC-62 [3])	growth at 50 µM (K562)	growth at 0.05 µM (MDA-MB-435)	growth at 50 µM (BT-549)	growth at 0.005 µM (TK-10 [4])	growth at 0.05 µM (M14 [5])	growth at 0.05 µM (NCI-H322M)	growth at 0.5 µM (SW-620 [6])	growth at 50 µM (OVCAR-3)	growth at 0.005 µM [7]	growth at 0.05 µM (SW-620 [8])	growth at 0.5 µM (COLO 205)	growth at 5 µM (Malme-3M)	growth at 0.5 µM (SK-MEL-5 [9])	growth at 0.005 µM (MOLT-4)	growth at 0.5 µM (A498)	also measured
COc1cc(-c2nn(-c3cccc(NC(=O)c4cccc(C(F)(F)F)c4)c3)cc2-c2ccncc2)ccc1Cl	51%	13%	100%	97%	96%	7%	100%	-1%	95%	94%	88%	89%	-38%	96%	98%	102%	21%	86%	99%	61%	growth at 5 µM (M14 [10]): 11%; growth at 0.05 µM (CAKI-1): 98%; growth at 50 µM [11]: -17%; growth at 5 µM (SK-OV-3): 24%; growth at 5 µM [12]: 2%; growth at 0.05 µM (SNB-19 [13]): 96%; growth at 50 µM (TK-10 [14]): 18%; growth at 50 µM (HCT-116): 9%; growth at 0.05 µM [15]: 96%; growth at 5 µM (SN12C): 41%; growth at 0.005 µM (SK-MEL-28): 103%; growth at 5 µM [16]: 21%; growth at 5 µM (A549): 19%; growth at 50 µM (NCI-H23): -3%; growth at 5 µM (SNB-19 [17]): 28%; growth at 0.005 µM (SF-539): 95%; growth at 0.005 µM (SW-620 [18]): 99%
O=C(Nc1cccc(-n2cc(-c3ccncc3)c(-c3ccc(Cl)c(O)c3)n2)c1)Nc1cc(C(F)(F)F)cc(C(F)(F)F)c1	-90%	-89%	101%	92%	92%	-26%	96%	-90%	107%	104%	104%	85%	-94%	102%	101%	93%	-21%	62%	106%	64%	growth at 5 µM (M14 [10]): -47%; growth at 0.05 µM (CAKI-1): 92%; growth at 50 µM [11]: -90%; growth at 5 µM (SK-OV-3): -13%; growth at 5 µM [12]: -8%; growth at 0.05 µM (SNB-19 [13]): 99%; growth at 50 µM (TK-10 [14]): -95%; growth at 50 µM (HCT-116): -96%; growth at 0.05 µM [15]: 103%; growth at 5 µM (SN12C): 2%; growth at 0.005 µM (SK-MEL-28): 101%; growth at 5 µM [16]: -43%; growth at 5 µM (A549): -33%; growth at 50 µM (NCI-H23): -75%; growth at 5 µM (SNB-19 [17]): 16%; growth at 0.005 µM (SF-539): 98%; growth at 0.005 µM (SW-620 [18]): 99%
O=C(Nc1cccc(-n2cc(-c3ccncc3)c(-c3ccc(Cl)c(O)c3)n2)c1)c1ccc(N2CCOCC2)c(C(F)(F)F)c1	6%	-30%	103%	93%	100%	3%	93%	36%	94%	94%	104%	106%	11%	97%	104%	111%	-9%	93%	99%	89%	growth at 5 µM (M14 [10]): 18%; growth at 0.05 µM (CAKI-1): 99%; growth at 50 µM [11]: 4%; growth at 5 µM (SK-OV-3): 72%; growth at 5 µM [12]: 25%; growth at 0.05 µM (SNB-19 [13]): 104%; growth at 50 µM (TK-10 [14]): 24%; growth at 50 µM (HCT-116): 10%; growth at 0.05 µM [15]: 98%; growth at 5 µM (SN12C): 70%; growth at 0.005 µM (SK-MEL-28): 104%; growth at 5 µM [16]: 53%; growth at 5 µM (A549): 39%; growth at 50 µM (NCI-H23): -13%; growth at 5 µM (SNB-19 [17]): 45%; growth at 0.005 µM (SF-539): 92%; growth at 0.005 µM (SW-620 [18]): 102%

— ChEMBL document CHEMBL2440076, “New triarylpyrazoles as broad-spectrum anticancer agents: design, synthesis, and biological evaluation” (Eur J Med Chem, 2013)
